Values of other authors as cited in patent publication US20170027865A1, “Dry Pharmaceutical Compositions for Topical Delivery of Oral Medications, Nasal Delivery and to Treat Ear Disorders” (CMPD LICENSING LLC, priority 2013, published 2017).

Key:
[1] = tested on: Paracoccidioides brasiliensis

Measured: Expected coverage

C[C@@H]1[C@H](O)[C@@H](C)/C=C/C=C/C=C/C=C/C=C/C=C/C=C/[C@H](O[C@@H]2O[C@H](C)[C@@H](O)[C@H](N)[C@@H]2O)C[C@@H]2O[C@](O)(C[C@@H](O)C[C@@H](O)[C@H](O)CC[C@@H](O)C[C@@H](O)CC(=O)O[C@H]1C)C[C@H](O)[C@H]2C(=O)O [Amphotericin, amphotericin B]
yes: Aspergillus flavus | Aspergillus fumigatus | Aspergillus niger | Aspergillus terreus | Blastomyces dermatitidis | Candida species | Coccidioides immitis | Cryptococcus neoformans | Histoplasma capsulatum | Leishmania donovani | Leishmania infantum | [1]

OC(Cn1cncn1)(Cn1cncn1)c1ccc(F)cc1F [Fluconazole, fluconazole]
yes: Aspergillus flavus | Aspergillus fumigatus | Blastomyces dermatitidis | Candida species | Coccidioides immitis | Cryptococcus neoformans | Histoplasma capsulatum

C[C@@H](c1ncncc1F)[C@](O)(Cn1cncn1)c1ccc(F)cc1F [Voriconazole, voriconazole]
yes: Aspergillus flavus | Aspergillus fumigatus | Aspergillus niger | Aspergillus terreus | Candida species | Fusarium species | Scedosporium apiospermum
